Experimental data: US20060293307A1, “Oxazolidinone derivatives as antimicrobials” (priority 2002, published 2006)
Values after ≈ are worked out from the molar mass of the structure shown. Where two headings read alike, the source gives them in different places.

Tests used:
S. pneumoniae 1256 = assay: MIC, agar incorporation method; assay type: cell-based, Streptococcus pneumoniae
[1] = test system: S. epidermidis ATCC 12228; assay: MIC, agar incorporation method; assay type: cell-based, Staphylococcus epidermidis
Salmonella 205 = assay: MIC, agar incorporation method; assay type: cell-based; conditions: S. No. 26, Salmonella 205
Protocol: The compounds of the invention display antibacterial activity when tested by the agar incorporation method. The following minimum inhibitory concentrations (μg/ml) were obtained for representative compounds of the invention which are given below in the following tables.
Briefly, the compounds were dissolved in DMSO and doubling dilution of the compounds were incorporated into Meer Hilton agar before solidification. Inoculum was prepared by suspending 4 to 5 colonies into 5 ml of normal saline solution and adjusting the turbidity to 0.5 Macfarland turbidity standard tables (1.5×10^8 CFU/ml), after appropriate dilutions, 10^4 CFU/spot was transfered into the surface of dried plate and incubated for 18 hours (24 hours for MRSN studies). The concentration showing no growth of the inoculated culture was recorded as the MIC. Appropriate ATCC standard strains were simultaneously tested and result recorded only when the MIC's against standard antibiotics were within the acceptable range.

[2] = test system: S. epidermidis (MRSE) 23760; assay: MIC, agar incorporation method; assay type: cell-based, Staphylococcus epidermidis
E. faecium 6A (VRE) = assay: MIC, agar incorporation method; assay type: cell-based, Enterococcus faecium
S. epidermidis 358 = assay: MIC, agar incorporation method; assay type: cell-based, Staphylococcus epidermidis
S. pneumoniae AB-2 = assay: MIC, agar incorporation method; assay type: cell-based, Streptococcus pneumoniae
S. pneumoniae ATCC 49619 = assay: MIC, agar incorporation method; assay type: cell-based, Streptococcus pneumoniae
K. oxytoca 49131 = assay: MIC, agar incorporation method; assay type: cell-based
S. pneumoniae AB-3 = assay: MIC, agar incorporation method; assay type: cell-based, Streptococcus pneumoniae
S. pyogenes 25147 = assay: MIC, agar incorporation method; assay type: cell-based, Streptococcus pyogenes
S. pneumoniae 1251 = assay: MIC, agar incorporation method; assay type: cell-based, Streptococcus pneumoniae
S. pneumoniae AB 30 = assay: MIC, agar incorporation method; assay type: cell-based, Streptococcus pneumoniae
S. aureus (MRSA) ST450 = assay: MIC, agar incorporation method; assay type: cell-based, Staphylococcus aureus
E. faecalis 21777 = assay: MIC, agar incorporation method; assay type: cell-based
S. aureus (MRSA) 15187 = assay: MIC, agar incorporation method; assay type: cell-based, Staphylococcus aureus
E. faecalis SP 346 (VRE) = assay: MIC, agar incorporation method; assay type: cell-based
S. epidermidis 823 = assay: MIC, agar incorporation method; assay type: cell-based, Staphylococcus epidermidis
S. pneumoniae AB 22 = assay: MIC, agar incorporation method; assay type: cell-based, Streptococcus pneumoniae
S. pneumoniae AB 23 = assay: MIC, agar incorporation method; assay type: cell-based, Streptococcus pneumoniae
H. influenzae 1381 = assay: MIC against Haemophilus strains; assay type: cell-based; conditions: s. No. 7, H. influenzae 1381
H. influenzae 49766 = assay: MIC against Haemophilus strains; assay type: cell-based; conditions: s. No. 6, H. influenzae 49766
H. influenzae 451 = assay: MIC against Haemophilus strains; assay type: cell-based; conditions: s. No. 8, H. influenzae 451
Moraxella M6 = assay: MIC, agar incorporation method; assay type: cell-based; conditions: Moraxella, M6

CC(=O)NC[C@H]1CN(c2ccc(N3CCN(c4ccc([N+](=O)[O-])o4)CC3)c(F)c2)C(=O)O1 [Compound No. 4, (S)—N-[[3-[3-Fluoro-4-[4-(5-nitro-2-furyl)-1-piperazinyl]phenyl]-2-oxo-5-oxazolidinyl]methyl]acetamide]
MIC (S. pneumoniae 1256; Streptococcus pneumoniae, S. No. 56, S. pneumoniae 1256, read-out: MIC): 4 µg/mL (≈ 8.94 µM) | MIC ([1]; Staphylococcus epidermidis, ATCC12228, S. No. 10, S. epidermidis ATCC 12228, read-out: MIC): 4 µg/mL (≈ 8.94 µM) | MIC (Salmonella 205; read-out: MIC): > 16 µg/mL | MIC ([2]; Staphylococcus epidermidis, S. No. 11, S. epidermidis (MRSE) 23760, read-out: MIC): 4 µg/mL (≈ 8.94 µM) | MIC (E. faecium 6A (VRE); Enterococcus faecium, S. No. 21, E. faecium 6A (VRE), read-out: MIC): 8 µg/mL (≈ 17.9 µM) | MIC (S. epidermidis 358; Staphylococcus epidermidis, S. No. 14, S. epidermidis 358, read-out: MIC): 4 µg/mL (≈ 8.94 µM) | MIC (S. pneumoniae AB-2; Streptococcus pneumoniae, AB2, S. No. 31, S. pneumoniae AB-2, read-out: MIC): 8 µg/mL (≈ 17.9 µM) | MIC (S. pneumoniae ATCC 49619; Streptococcus pneumoniae, ATCC49619, S. No. 48, S. pneumoniae ATCC 49619, read-out: MIC): 4 µg/mL (≈ 8.94 µM) | MIC (K. oxytoca 49131; Klebsiella oxytoca, S. No. 27, K. oxytoca 49131, read-out: MIC): > 16 µg/mL | MIC (S. pneumoniae AB-3; Streptococcus pneumoniae, AB3, S. No. 32, S. pneumoniae AB-3, read-out: MIC): 8 µg/mL (≈ 17.9 µM) | MIC (S. pyogenes 25147; Streptococcus pyogenes, S. No. 52, S. pyogenes 25147, read-out: MIC): 4 µg/mL (≈ 8.94 µM) | MIC (S. pneumoniae 1251; Streptococcus pneumoniae, S. No. 54, S. pneumoniae 1251, read-out: MIC): 4 µg/mL (≈ 8.94 µM) | MIC (S. pneumoniae AB 30; Streptococcus pneumoniae, AB30, S. No. 47, S. pneumoniae AB 30, read-out: MIC): 4 µg/mL (≈ 8.94 µM) | MIC (S. aureus (MRSA) ST450; Staphylococcus aureus, S. No. 6, S. aureus (MRSA) ST450, read-out: MIC): 8 µg/mL (≈ 17.9 µM) | MIC (E. faecalis 21777; Enterococcus faecalis, S. No. 18, E. faecalis 21777, read-out: MIC): 8 µg/mL (≈ 17.9 µM) | MIC (S. aureus (MRSA) 15187; Staphylococcus aureus, S. No. 4, S. aureus (MRSA) 15187, read-out: MIC): 8 µg/mL (≈ 17.9 µM) | MIC (E. faecalis SP 346 (VRE); Enterococcus faecalis, S. No. 20, E. faecalis SP 346 (VRE), read-out: MIC): 8 µg/mL (≈ 17.9 µM) | MIC (S. epidermidis 823; Staphylococcus epidermidis, S. No. 12, S. epidermidis 823, read-out: MIC): 4 µg/mL (≈ 8.94 µM) | MIC (S. pneumoniae AB 22; Streptococcus pneumoniae, AB22, S. No. 42, S. pneumoniae AB 22, read-out: MIC): 8 µg/mL (≈ 17.9 µM) | MIC (S. pneumoniae AB 23; Streptococcus pneumoniae, AB23, S. No. 43, S. pneumoniae AB 23, read-out: MIC): 8 µg/mL (≈ 17.9 µM)

CC(=O)NC[C@H]1CN(c2ccc(N3CCN(c4ccc([N+](=O)[O-])s4)CC3)cc2)C(=O)O1 [Compound No. 6, (S)—N-[[3-[4-[N-1-(5-nitro-2-thienyl)piperazinyl]-phenyl]-2-oxo-5-oxazolidinyl]-methyl]-acetamide]
MIC (S. pneumoniae 1256; S. No. 56, S. pneumoniae 1256): 0.25 µg/mL (≈ 0.561 µM) | MIC ([1]; S. No. 10, S. epidermidis ATCC 12228): 1 µg/mL (≈ 2.24 µM) | MIC (Salmonella 205): >16 µg/mL | MIC ([2]; S. No. 11, S. epidermidis (MRSE) 23760): 1 µg/mL (≈ 2.24 µM) | MIC (H. influenzae 1381): 16 µg/mL (≈ 35.9 µM) | MIC (E. faecium 6A (VRE); S. No. 21, E. faecium 6A (VRE)): 1 µg/mL (≈ 2.24 µM) | MIC (S. epidermidis 358; S. No. 14, S. epidermidis 358): 1 µg/mL (≈ 2.24 µM) | MIC (S. pneumoniae AB-2; S. No. 31, S. pneumoniae AB-2): 0.25 µg/mL (≈ 0.561 µM) | MIC (S. pneumoniae ATCC 49619; S. No. 48, S. pneumoniae ATCC 49619): 0.5 µg/mL (≈ 1.12 µM) | MIC (K. oxytoca 49131; S. No. 27, K. oxytoca 49131): >16 µg/mL | MIC (S. pneumoniae AB-3; S. No. 32, S. pneumoniae AB-3): 0.25 µg/mL (≈ 0.561 µM) | MIC (S. pyogenes 25147; S. No. 52, S. pyogenes 25147): 0.5 µg/mL (≈ 1.12 µM) | MIC (S. pneumoniae 1251; S. No. 54, S. pneumoniae 1251): 0.25 µg/mL (≈ 0.561 µM) | MIC (S. pneumoniae AB 30; S. No. 47, S. pneumoniae AB 30): 0.5 µg/mL (≈ 1.12 µM) | MIC (H. influenzae 49766): 16 µg/mL (≈ 35.9 µM) | MIC (S. aureus (MRSA) ST450; S. No. 6, S. aureus (MRSA) ST450): 2 µg/mL (≈ 4.49 µM) | MIC (E. faecalis 21777; S. No. 18, E. faecalis 21777): 1 µg/mL (≈ 2.24 µM) | MIC (S. aureus (MRSA) 15187; S. No. 4, S. aureus (MRSA) 15187): 2 µg/mL (≈ 4.49 µM) | MIC (E. faecalis SP 346 (VRE); S. No. 20, E. faecalis SP 346 (VRE)): 1 µg/mL (≈ 2.24 µM) | MIC (S. epidermidis 823; S. No. 12, S. epidermidis 823): 1 µg/mL (≈ 2.24 µM) | MIC (S. pneumoniae AB 22; S. No. 42, S. pneumoniae AB 22): 0.25 µg/mL (≈ 0.561 µM) | MIC (S. pneumoniae AB 23; S. No. 43, S. pneumoniae AB 23): 0.5 µg/mL (≈ 1.12 µM) | MIC (H. influenzae 451): 16 µg/mL (≈ 35.9 µM)

CN[C@H](CC(C)C)C(=O)N[C@H]1C(=O)N[C@@H](CC(N)=O)C(=O)N[C@H]2C(=O)N[C@H]3C(=O)N[C@H](C(=O)N[C@H](C(=O)O)c4cc(O)cc(O)c4-c4cc3ccc4O)[C@H](O)c3ccc(c(Cl)c3)Oc3cc2cc(c3O[C@@H]2O[C@H](CO)[C@@H](O)[C@H](O)[C@H]2O[C@H]2C[C@](C)(N)[C@H](O)[C@H](C)O2)Oc2ccc(cc2Cl)[C@H]1O [Vancomycin, reference compound]
MIC (S. pneumoniae 1256; Streptococcus pneumoniae, 1256): 0.5 µg/mL (≈ 0.345 µM) | MIC ([1]; Staphylococcus epidermidis, ATCC12228): 1 µg/mL (≈ 0.69 µM) | MIC (Salmonella 205; read-out: MIC): > 16 µg/mL | MIC ([2]; Staphylococcus epidermidis, MRSE): 2 µg/mL (≈ 1.38 µM) | MIC (E. faecium 6A (VRE); Enterococcus faecium, VRE): > 16 µg/mL | MIC (S. epidermidis 358; Staphylococcus epidermidis, 358): 2 µg/mL (≈ 1.38 µM) | MIC (S. pneumoniae AB-2; Streptococcus pneumoniae, AB2): 0.5 µg/mL (≈ 0.345 µM) | MIC (S. pneumoniae ATCC 49619; Streptococcus pneumoniae, ATCC49619): 0.25 µg/mL (≈ 0.173 µM) | MIC (K. oxytoca 49131; Klebsiella oxytoca, 49131): > 16 µg/mL | MIC (S. pneumoniae AB-3; Streptococcus pneumoniae, AB3): 0.5 µg/mL (≈ 0.345 µM) | MIC (S. pyogenes 25147; Streptococcus pyogenes, 25147): 0.5 µg/mL (≈ 0.345 µM) | MIC (S. pneumoniae 1251; Streptococcus pneumoniae, 1251): 0.25 µg/mL (≈ 0.173 µM) | MIC (S. pneumoniae AB 30; Streptococcus pneumoniae, AB30): 0.25 µg/mL (≈ 0.173 µM) | MIC (S. aureus (MRSA) ST450; Staphylococcus aureus, MRSA): 0.5 µg/mL (≈ 0.345 µM) | MIC (Moraxella M6): > 8 µg/mL | MIC (E. faecalis 21777; Enterococcus faecalis, 21777): 2 µg/mL (≈ 1.38 µM) | MIC (S. aureus (MRSA) 15187; Staphylococcus aureus, MRSA): 0.5 µg/mL (≈ 0.345 µM) | MIC (E. faecalis SP 346 (VRE); Enterococcus faecalis, VRE): > 16 µg/mL | MIC (S. epidermidis 823; Staphylococcus epidermidis, 823): 2 µg/mL (≈ 1.38 µM) | MIC (S. pneumoniae AB 22; Streptococcus pneumoniae, AB22): 0.25 µg/mL (≈ 0.173 µM) | MIC (S. pneumoniae AB 23; Streptococcus pneumoniae, AB23): 0.25 µg/mL (≈ 0.173 µM)
